The values that follow come from patent US12509431B2, “1,4-dihydroquinazolinone compounds and uses thereof” (Edgewise Therapeutics, Inc., priority 2022, dated 2025).

Common to all, as to assay type: biochemical
The target of assay [1] is T1, Porcine Ventricle myofibrils (left ventricle of Yucatan minipigs) (Sus scrofa, UniProt P79293).
T1 construct: Myofibrils from porcine cardiac muscle was isolated from the left ventricle of Yucatan minipigs; tissue Exemplar Genetics; host or cells: left ventricle of Yucatan minipigs
Put plainly: Myofibril ATPase assay (PK/LDH NADH-coupled), ventricle myofibrils. In a few lines: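 Yucatan minipig left-ventricle myofibrils; ATPase measured by PK/LDH-coupled NADH loss at 340 nm, read every 1.5-2 min for 75 min. Slopes normalized to vehicle (100%) and fit to 4-parameter logistic model; EC25 and, for inhibitors, EC50 calculated.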

For assay [2], the system named is Rabbit Skeletal myofibrils (rabbit psoas muscle). In words: Myofibril ATPase assay (PK/LDH NADH-coupled), skeletal myofibrils. In a few lines:
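Rabbit psoas myofibrils in pCa (PIPES/CaCl2/EGTA, pH 7.0) buffer; ADP coupled via PK/LDH to NADH loss, read at 340 nm every 1.5–2 min for 75 min. Slopes normalized to vehicle (100%) and fit to 4-parameter logistic for EC25, plus EC50 for inhibitors.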

In assay [3] the test system is Porcine Atria myofibrils. Put plainly: Myofibril ATPase assay (PK/LDH NADH-coupled), atria myofibrils. In a few lines: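 Porcine atrial myofibril ATPase followed via PK/LDH-coupled NADH depletion, absorbance at 340 nm read every 1.5-2 min over 75 min. Slopes (mAU/min) normalized to vehicle as 100% and fit to a 4-parameter logistic; EC25% derived, plus EC50% for inhibitors.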

T1 sequence (P79293 whole entry): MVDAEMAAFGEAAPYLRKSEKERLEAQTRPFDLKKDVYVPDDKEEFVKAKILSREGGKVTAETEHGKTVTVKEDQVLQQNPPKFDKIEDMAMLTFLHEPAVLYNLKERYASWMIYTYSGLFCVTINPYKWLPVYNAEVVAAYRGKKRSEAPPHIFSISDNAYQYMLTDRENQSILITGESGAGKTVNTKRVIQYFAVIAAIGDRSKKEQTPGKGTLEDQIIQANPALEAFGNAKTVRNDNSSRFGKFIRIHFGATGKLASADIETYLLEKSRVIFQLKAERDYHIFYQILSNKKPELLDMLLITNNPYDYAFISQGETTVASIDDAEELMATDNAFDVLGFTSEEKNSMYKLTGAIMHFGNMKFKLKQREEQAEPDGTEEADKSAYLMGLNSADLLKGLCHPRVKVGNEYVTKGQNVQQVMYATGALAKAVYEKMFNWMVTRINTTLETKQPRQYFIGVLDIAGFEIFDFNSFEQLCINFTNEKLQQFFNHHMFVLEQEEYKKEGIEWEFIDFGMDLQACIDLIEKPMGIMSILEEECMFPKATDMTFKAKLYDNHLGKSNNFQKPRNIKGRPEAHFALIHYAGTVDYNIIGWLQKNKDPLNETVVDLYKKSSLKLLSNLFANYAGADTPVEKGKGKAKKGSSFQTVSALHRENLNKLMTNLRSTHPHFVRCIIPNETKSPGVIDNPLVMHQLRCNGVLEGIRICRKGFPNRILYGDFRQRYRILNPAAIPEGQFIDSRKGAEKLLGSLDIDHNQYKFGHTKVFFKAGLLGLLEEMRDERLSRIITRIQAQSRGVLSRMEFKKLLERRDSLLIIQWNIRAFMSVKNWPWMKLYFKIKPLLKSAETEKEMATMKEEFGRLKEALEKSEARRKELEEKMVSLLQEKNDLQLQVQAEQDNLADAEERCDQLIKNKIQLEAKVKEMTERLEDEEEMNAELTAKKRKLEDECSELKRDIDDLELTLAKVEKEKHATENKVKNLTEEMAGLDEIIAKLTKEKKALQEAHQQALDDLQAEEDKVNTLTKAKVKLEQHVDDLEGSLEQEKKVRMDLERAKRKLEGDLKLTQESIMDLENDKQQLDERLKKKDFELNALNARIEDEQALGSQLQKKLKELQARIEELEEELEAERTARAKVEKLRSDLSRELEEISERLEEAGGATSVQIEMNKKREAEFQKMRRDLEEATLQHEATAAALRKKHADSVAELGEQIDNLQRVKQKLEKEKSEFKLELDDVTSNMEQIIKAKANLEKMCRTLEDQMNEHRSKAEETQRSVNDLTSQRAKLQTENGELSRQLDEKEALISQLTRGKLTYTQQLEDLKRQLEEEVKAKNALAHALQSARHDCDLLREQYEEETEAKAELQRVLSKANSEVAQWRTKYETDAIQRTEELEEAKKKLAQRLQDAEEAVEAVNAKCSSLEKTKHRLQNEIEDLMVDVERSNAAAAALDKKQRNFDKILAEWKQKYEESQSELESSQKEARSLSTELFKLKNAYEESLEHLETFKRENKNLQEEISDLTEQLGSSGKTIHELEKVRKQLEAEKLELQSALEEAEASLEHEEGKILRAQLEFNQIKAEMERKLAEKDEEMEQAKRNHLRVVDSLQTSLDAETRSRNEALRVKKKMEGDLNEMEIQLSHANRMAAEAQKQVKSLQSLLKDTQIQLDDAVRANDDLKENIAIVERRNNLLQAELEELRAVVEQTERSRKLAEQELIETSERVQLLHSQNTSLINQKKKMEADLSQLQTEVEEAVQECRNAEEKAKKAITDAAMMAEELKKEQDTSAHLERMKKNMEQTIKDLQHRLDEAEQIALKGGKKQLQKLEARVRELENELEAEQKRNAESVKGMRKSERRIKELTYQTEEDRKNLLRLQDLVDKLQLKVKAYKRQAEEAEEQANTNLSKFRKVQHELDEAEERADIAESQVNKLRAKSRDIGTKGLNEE

`C[C@@H](NC(=O)CN1Cc2cc(F)cnc2NC1=O)c1ncc(F)cc1F` [Compound N69]: the “Porcine Ventricle IC25” value in assay [1] (Table 7) was determined as 100 µM. Also, in assay [2] (Table 7), the “Rabbit Psoas IC25” value was 100 µM. For the same compound, the “Porcine Atria IC25” value in assay [3] (Table 7) stood at 100.00 µM.
Consider `C[C@@H](NC(=O)CN1Cc2cc(CN(C)C)ccc2NC1=O)c1ncc(C#N)cc1F` [Compound B251], for which the “Porcine Ventricle IC25” value in assay [1] (Table 8) is 100.00 µM. Further, in assay [2] (Table 8), the “Rabbit Psoas IC25” value came out at 100.00 µM. The “Porcine Atria IC25” value in assay [3] (Table 8) was found to be 8.81 µM.
With `O=C(CN1Cc2c(ccc(F)c2F)NC1=O)N[C@@H]1COCc2cc(F)ccc21` [Compound B75], the “Porcine Ventricle IC25” value in assay [1] (Table 8) was 0.0144 µM. Further, in assay [2] (Table 8), the “Rabbit Psoas IC25” value amounted to 0.09136 µM. The “Porcine Atria IC25” value in assay [3] (Table 8) was found to be 0.02 µM.
On the same counts, the results for `CC(C)C[C@H](C(=O)N[C@@H](C)c1ccc(F)cc1F)N1Cc2cc(F)ccc2NC1=O` [Compound B208] are 100 µM, 100 µM and 100.00 µM.
On to `O=C(CN1Cc2c(ccc(F)c2F)NC1=O)N[C@H]1COc2c(F)cc(F)cc2C1` [Compound B102], for which, in assay [1] (Table 8), the “Porcine Ventricle IC25” value was found to be 6.262 µM. Also, in assay [2] (Table 8), the “Rabbit Psoas IC25” value was determined as 7.621 µM. Moreover, the “Porcine Atria IC25” value in assay [3] (Table 8) was 0.10 µM.
On the same counts, the results for `C[C@@H](NC(=O)CN1Cc2c(ccc(F)c2C#N)NC1=O)c1ncc(C#N)cc1F` [Compound B131] are 100 µM, 0.3456 µM and 100.00 µM.
Take `O=C(CN1Cc2cnccc2NC1=O)N[C@@H]1COc2cc(F)cc(F)c21` [Compound N10]: the “Porcine Ventricle IC25” value in assay [1] (Table 7) came to 13.44 µM. Moreover, the “Rabbit Psoas IC25” value in assay [2] (Table 7) came out at 0.4579 µM. Besides, in assay [3] (Table 7), the “Porcine Atria IC25” value was 0.82 µM.
For `COc1ccc2c(n1)CN(CC(=O)N[C@@H](C)c1ccc(F)cc1F)C(=O)N2` [Compound N119], the “Porcine Ventricle IC25” value in assay [1] (Table 7) was 3.289 µM. Besides, in assay [2] (Table 7), the “Rabbit Psoas IC25” value stood at 0.1196 µM. In addition, the “Porcine Atria IC25” value in assay [3] (Table 7) turned out to be 0.57 µM.
With `C[C@H](NC(=O)CN1Cc2c(ccc(F)c2F)NC1=O)c1ccc(C(F)(F)F)cn1` [Compound B108], the “Porcine Ventricle IC25” value in assay [1] (Table 8) was 3.587 µM. The “Rabbit Psoas IC25” value in assay [2] (Table 8) amounted to 1.4 µM. In addition, the “Porcine Atria IC25” value in assay [3] (Table 8) was 0.46 µM.
In the case of `C[C@H](NC(=O)CN1C(=O)Nc2ccncc2[C@@H]1C)c1ccc(F)cc1F` [Compound N86], in assay [1] (Table 7), the “Porcine Ventricle IC25” value was 100 µM. Moreover, the “Rabbit Psoas IC25” value in assay [2] (Table 7) is 10.83 µM. Moreover, the “Porcine Atria IC25” value in assay [3] (Table 7) amounted to 30.96 µM.
As to `O=C(CN1Cc2c(ccc(F)c2F)NC1=O)N[C@@H]1COCc2cc(F)cc(F)c21` [Compound B62], the “Porcine Ventricle IC25” value in assay [1] (Table 8) is 0.0415 µM. In addition, the “Rabbit Psoas IC25” value in assay [2] (Table 8) came out at 0.0143 µM. Also, in assay [3] (Table 8), the “Porcine Atria IC25” value worked out at 0.04 µM.
On the same counts, the results for `C[C@H](NC(=O)[C@H](C)N1Cc2c(ccc(F)c2F)NC1=O)c1ncc(C#N)cc1F` [Compound B278] are 0.09 µM, 0.03 µM and 0.03 µM.
For the compound `C[C@H](NC(=O)CN1Cc2c(C#N)cncc2NC1=O)c1ccc(F)cc1F` [Compound N24, 2-{5-Cyano-2-oxo-1H,4H-pyrido[3,4-d]pyrimidin-3-yl}-N-[(1S)-1-(2,4-difluorophenyl)ethyl]acetamide], the “Porcine Ventricle IC25” value in assay [1] (Table 7) was 37.65 µM. Further, the “Rabbit Psoas IC25” value in assay [2] (Table 7) was 0.2119 µM. For the same compound, in assay [3] (Table 7), the “Porcine Atria IC25” value was determined as 2.97 µM.
On to `C[C@@H](NC(=O)[C@@H](CC1CC1)N1Cc2c(ccc(F)c2F)NC1=O)c1ccc(F)cc1F` [Compound B49], for which, in assay [1] (Table 8), the “Porcine Ventricle IC25” value was determined as 45.96 µM. For the same compound, the “Rabbit Psoas IC25” value in assay [2] (Table 8) came to 100 µM. In addition, the “Porcine Atria IC25” value in assay [3] (Table 8) was 6.51 µM.
Turning to `C[C@@H](NC(=O)CN1C(=O)Nc2cccnc2C12CC2)c1ncc(F)cc1F` [Compound N47], the “Porcine Ventricle IC25” value in assay [1] (Table 7) came out at 6.077 µM. Further, the “Rabbit Psoas IC25” value in assay [2] (Table 7) is 0.2942 µM. Also, in assay [3] (Table 7), the “Porcine Atria IC25” value is 0.67 µM.
For the compound `C[C@H](NC(=O)CN1C(=O)Nc2ccccc2C12CCCCC2)c1ccc(F)cc1F` [Compound B246], the “Porcine Ventricle IC25” value in assay [1] (Table 8) is 73.7 µM. In addition, the “Rabbit Psoas IC25” value in assay [2] (Table 8) was determined as 19.62 µM. In addition, in assay [3] (Table 8), the “Porcine Atria IC25” value worked out at 100.00 µM.
Consider `CC(NC(=O)CN1Cc2c(ccc(F)c2F)NC1=O)c1cc(C#N)c(F)cn1` (single isomer, unassigned) [Compound B53], for which the “Porcine Ventricle IC25” value in assay [1] (Table 8) was 7.534 µM. Also, in assay [2] (Table 8), the “Rabbit Psoas IC25” value stood at 100 µM. Moreover, in assay [3] (Table 8), the “Porcine Atria IC25” value came to 0.09 µM.
`C[C@H](NC(=O)CN1C(=O)Nc2ccc(C#N)nc2C12CC2)c1ccc(F)cc1F` [Compound N13]: the “Porcine Ventricle IC25” value in assay [1] (Table 7) turned out to be 0.8569 µM. Besides, the “Rabbit Psoas IC25” value in assay [2] (Table 7) is 0.063 µM. Besides, in assay [3] (Table 7), the “Porcine Atria IC25” value worked out at 0.07 µM.
Regarding `CC(C)C[C@@H](C(=O)N[C@@H](C)c1ccc(F)cc1F)N1Cc2cc(F)ccc2NC1=O` [Compound B207], the “Porcine Ventricle IC25” value in assay [1] (Table 8) was 100 µM. The “Rabbit Psoas IC25” value in assay [2] (Table 8) is 100 µM. Also, in assay [3] (Table 8), the “Porcine Atria IC25” value is 100.00 µM.
For `Cc1cc(F)ccc1[C@H](C)NC(=O)CN1Cc2cc(F)ccc2NC1=O` [Compound B225], the “Porcine Ventricle IC25” value in assay [1] (Table 8) turned out to be 0.1849 µM. Besides, the “Rabbit Psoas IC25” value in assay [2] (Table 8) amounted to 0.0175 µM. The “Porcine Atria IC25” value in assay [3] (Table 8) stood at 0.05 µM.
For `N#Cc1cnc2c(c1)COC[C@H]2NC(=O)CN1Cc2c(ccc(F)c2F)NC1=O` [Compound B4], the “Porcine Ventricle IC25” value in assay [1] (Table 8) turned out to be 0.1161 µM. Moreover, in assay [2] (Table 8), the “Rabbit Psoas IC25” value worked out at 0.1318 µM. The “Porcine Atria IC25” value in assay [3] (Table 8) was determined as 0.07 µM.
For `C[C@@H](NC(=O)CN1Cc2c(ccc(F)c2F)NC1=O)c1ncc(-n2ncnn2)cc1F` [Compound B264], the “Porcine Ventricle IC25” value in assay [1] (Table 8) is 0.89 µM. For the same compound, the “Rabbit Psoas IC25” value in assay [2] (Table 8) worked out at 100.00 µM. Moreover, the “Porcine Atria IC25” value in assay [3] (Table 8) was 0.52 µM.
As to `C[C@@H](NC(=O)CN1Cc2cc(C#N)ccc2NC1=O)c1ncc(C#N)cc1F` [Compound B143], the “Porcine Ventricle IC25” value in assay [1] (Table 8) came to 100 µM. In addition, in assay [2] (Table 8), the “Rabbit Psoas IC25” value was 100 µM. For the same compound, in assay [3] (Table 8), the “Porcine Atria IC25” value came out at 100.00 µM.
With `Cc1ccc2c(c1F)CN(CC(=O)N[C@@H](C)c1ccc(C#N)cc1F)C(=O)N2` [Compound B31, N-[(1S)-1-(4-cyano-2-fluorophenyl)ethyl]-2-(5-fluoro-6-methyl-2-oxo-1,4-dihydroquinazolin-3-yl)acetamide], in assay [1] (Table 8), the “Porcine Ventricle IC25” value amounted to 0.0421 µM. The “Rabbit Psoas IC25” value in assay [2] (Table 8) turned out to be 0.01 µM. Besides, the “Porcine Atria IC25” value in assay [3] (Table 8) was determined as 0.02 µM.
With `C[C@H](NC(=O)CN1Cc2c(ccnc2OC2COC2)NC1=O)c1ccc(F)cc1F` [Compound N66], in assay [1] (Table 7), the “Porcine Ventricle IC25” value was determined as 100 µM. Further, the “Rabbit Psoas IC25” value in assay [2] (Table 7) amounted to 0.3112 µM. Moreover, the “Porcine Atria IC25” value in assay [3] (Table 7) was determined as 29.35 µM.
As for `C[C@H](NC(=O)CN1Cc2nc(OC(F)(F)F)ccc2NC1=O)c1ccc(F)cc1F` [Compound N109], the “Porcine Ventricle IC25” value in assay [1] (Table 7) came out at 100 µM. Moreover, the “Rabbit Psoas IC25” value in assay [2] (Table 7) worked out at 0.4553 µM. Also, in assay [3] (Table 7), the “Porcine Atria IC25” value amounted to 5.44 µM.
Turning to `CC(C(=O)N[C@@H](C)c1ccc(F)cc1F)N1Cc2ccccc2NC1=O` (stereo partly drawn) [Compound B243], the “Porcine Ventricle IC25” value in assay [1] (Table 8) was found to be 11.52 µM. In addition, the “Rabbit Psoas IC25” value in assay [2] (Table 8) came out at 10.96 µM. Further, in assay [3] (Table 8), the “Porcine Atria IC25” value turned out to be 0.19 µM.
